For test [1], the system named is VSV-SARS-CoV-2 (SARS-CoV-2 spike pseudotyped VSV). The test is classed as cell-based.
The target in a further test is T1, SARS-CoV-2 S1 subunit (Severe acute respiratory syndrome coronavirus 2, UniProt P0DTC2).
T1 construct: 50 μL of S1-subunit protein solution (0.1 mg·mL^−1, Genscript Z03501); purchased Genscript Z03501
Description: biochemical. The test is classed as binding.

For test [2], the target named is T2, SARS-CoV-2 spike S1 subunit (Severe acute respiratory syndrome coronavirus 2, UniProt P0DTC2).
T2 construct: 50 μL of S1-subunit protein solution (0.1 mg·mL^−1, Genscript Z03501); purchased Genscript Z03501
In kind it is binding.

In test [3] the test system is UV-inactivated SARS-CoV-2 virions. The test is classed as binding.

Molecules are shown by their SMILES.

As for `CC(=O)N[C@H]1[C@H]([C@H](O)[C@H](O)COC(C)=O)OC(O)(C(=O)O)C[C@@H]1O` (some centres unmarked) [Compound 9-AcSA, 9-O-acetyl-sialic acid], the “reduction of VSV-SARS-CoV-2 infectivity” value in test [1] was “did not significantly reduce”.

`CC(=O)N[C@H]1C([C@H](O)[C@H](O)COC(C)=O)O[C@](O)(C(=O)O)C[C@H]1O` (some centres unmarked) [Compound 9-AcSA, 9-O-acetyl-sialic acid]: binding at SARS-CoV-2 S1 subunit was characterised by a dissociation constant (Kd) of 5.7 ± 5 µM. Moreover, the kon on SARS-CoV-2 S1 subunit (read-out: association rate (kon)) is 42000 M⁻¹ s⁻¹. Moreover, the “binding probability (BP) in competition assay” value in test [2] was “significantly lower binding probability”. Further, in test [3], the “reduction in the binding frequency (BF)” value is 20-30%.
